This is an account of results in US7326699B2, “4-Amino-5-phenyl-7-cyclobutyl-pyrrolo(2,3-d)pyrimidine derivatives” (Novartis AG, priority 2001, dated 2008).

By IC50 is commonly meant the concentration that gives 50% inhibition.

The target of this experiment is T1, human IGF-IR (Homo sapiens, UniProt P08069).
T1 construct: complete human IGF-IR cDNA: GenBank Acc; No. NM_000875; expressed in transfected cells; host or cells: NIH-3T3 mouse fibroblasts
T1 sequence (P08069 31-1367): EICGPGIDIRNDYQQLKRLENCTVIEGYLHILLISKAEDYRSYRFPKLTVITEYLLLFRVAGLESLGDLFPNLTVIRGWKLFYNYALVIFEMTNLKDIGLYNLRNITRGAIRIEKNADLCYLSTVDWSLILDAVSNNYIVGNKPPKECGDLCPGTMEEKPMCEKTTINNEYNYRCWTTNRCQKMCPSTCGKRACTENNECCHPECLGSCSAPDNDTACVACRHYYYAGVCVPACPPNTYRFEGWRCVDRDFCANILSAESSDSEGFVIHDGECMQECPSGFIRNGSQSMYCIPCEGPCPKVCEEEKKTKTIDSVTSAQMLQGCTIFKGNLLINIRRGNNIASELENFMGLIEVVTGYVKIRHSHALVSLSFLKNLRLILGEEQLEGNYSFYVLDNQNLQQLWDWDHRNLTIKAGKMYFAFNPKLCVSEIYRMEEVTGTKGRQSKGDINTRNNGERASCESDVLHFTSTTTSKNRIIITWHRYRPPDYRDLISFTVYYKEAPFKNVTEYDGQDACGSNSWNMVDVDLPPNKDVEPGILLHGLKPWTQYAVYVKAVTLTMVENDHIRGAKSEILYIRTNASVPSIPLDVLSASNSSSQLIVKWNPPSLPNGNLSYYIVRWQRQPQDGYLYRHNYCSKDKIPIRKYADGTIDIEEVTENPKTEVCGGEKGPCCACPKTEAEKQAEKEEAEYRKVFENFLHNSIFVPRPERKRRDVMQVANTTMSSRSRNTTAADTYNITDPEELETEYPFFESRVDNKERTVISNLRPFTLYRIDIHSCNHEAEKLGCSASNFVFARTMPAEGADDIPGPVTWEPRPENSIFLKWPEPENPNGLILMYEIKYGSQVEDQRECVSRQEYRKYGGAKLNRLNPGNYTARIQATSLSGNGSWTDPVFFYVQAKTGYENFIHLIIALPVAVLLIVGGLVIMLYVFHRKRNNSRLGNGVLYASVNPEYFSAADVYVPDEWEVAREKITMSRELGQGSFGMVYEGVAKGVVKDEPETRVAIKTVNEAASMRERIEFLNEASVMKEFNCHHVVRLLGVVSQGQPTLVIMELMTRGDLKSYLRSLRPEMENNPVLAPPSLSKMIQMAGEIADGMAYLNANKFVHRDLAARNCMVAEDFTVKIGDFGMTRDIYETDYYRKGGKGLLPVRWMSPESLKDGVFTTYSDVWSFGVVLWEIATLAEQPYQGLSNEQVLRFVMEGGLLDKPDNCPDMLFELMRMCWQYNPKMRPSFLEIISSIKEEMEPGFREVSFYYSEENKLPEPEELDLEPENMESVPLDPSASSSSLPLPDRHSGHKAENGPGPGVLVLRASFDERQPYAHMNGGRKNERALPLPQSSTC
In words: cellular "Capture ELISA": IGF-I induced IGF-IR autophosphorylation. The format is cell-based. The settings on record: NIH-3T3 mouse fibroblasts transfected with human IGF-IR cDNA, 90 min compound, 10 ng/ml IGF-I for 10 min. The method, then:
In this assay the activity of the compounds of the invention against Insulin-like growth factor I (IGF-I) induced autophosphorylation of the IGF-IGF-IR is determined. The assay is conducted as follows:
The cells which overexpress human IGF-IGF-IR are cultured in Dulbecco's minimal essential (DMEM) medium, containing 10% Fetal Calf Serum (FCS). […] On day 3 the medium is discarded and the cells are incubated for 24 h in minimal medium (DMEM, containing 0.5% FCS). […] The cells are incubated for 90 min in the presence of a compound of formula I. Thereafter the cells are stimulated with 50 μl IGF-I (final concentration of IGF-I in the well=10 ng/ml; IGF-I is obtained from Sigma; Product Code: I3769) and incubated for 10 min at 37° C.
The medium is discarded and the cells are washed twice with PBS/O (=Phosphate-Buffered Saline without CaCl2) and lysed for 15 min on ice with 50 μl/well RIPA-buffer [50 mM Tris.HCl, pH=7.2, 120 mM NaCl, 1 mM EDTA, 6 mM EGTA, 1% NP-40, 20 mM NaF, 1 mM benzamidine, 15 mM sodium pyrophosphate, 1 mM Phenyl methyl sulphonyl fluoride (PMSF) and 0.5 mM Na3VO4] and shaken for 10 min using a 96-well plate shaker (=cellular extracts).
The plates are washed twice with 0.05% (v/v) Tween-20 in Phosphate-Buffered Saline (PBS) and once with nanopure H2O. […] After blocking, the plates are washed once with nanopure H2O.
After incubating the extracts and the secondary antibody for 2 h at 4° C., the extracts are discarded, the plates are washed twice with 0.05% (v/v) Tween-20 in PBS and once with nanopure water.
90 μl/well AP substrate (CDP-Star; obtained from Tropix; Cat. No.: MS100RY) are then added and the plates are incubated for 45 min at RT in the dark, followed by measuring AP activity in a Packard Top Count Microplate Scintillation Counter. The IC50 values for the compounds of formula I are calculated via linear regression analysis using the GraphPad In-stat program (GraphPad Software, USA).
Test for activity against IGF-I induced IGF-IR autophosphorylation using the cellular “Capture ELISA” test
The cellular “Capture ELISA” test is carried out as described above.
(An ELISA detects its analyte on a solid surface through an enzyme-linked reagent.)
As to `CN(C)CCOC(=O)NC[C@H]1C[C@H](n2cc(-c3cccc(OCc4ccccc4)c3)c3c(N)ncnc32)C1` [Example 98, trans-{3-[4-Amino-5-(3-benzyloxy-phenyl)-pyrrolo[2,3-d]pyrimidin-7-yl]-cyclobutylmethyl}-carbamic acid 2-dimethylamino-ethyl ester], the IC50 turned out to be 40 nM. For the molecule `Cc1c(-c2cccc(OCc3ccccc3)c2)c2c(N)ncnc2n1[C@H]1C[C@H](CN2CCC(O)CC2)C1` [Example 109, trans-1-{3-[4-Amino-5-(3-benzyloxy-phenyl)-6-methyl-pyrrolo[2,3-d]pyrimidin-7-yl]-cyclobutylmethyl}-piperidin-4-ol], the IC50 turned out to be 150 nM.

For the molecule `Cc1c(-c2cccc(OCc3ccccc3)c2)c2c(N)ncnc2n1[C@H]1C[C@H](CN2CCC2)C1` [Example 110, trans-7-(3-Azetidin-1-ylmethyl-cyclobutyl)-5-(3-benzyloxy-phenyl)-6-methyl-7-H-pyrrolo[2,3-d]pyrimidin-4-ylamine], inhibition was half-maximal at 140 nM (IC50). `Cc1c(-c2cccc(OCc3ccccc3)c2)c2c(N)ncnc2n1[C@H]1C[C@H](CN2CCC[C@@H]2CO)C1` [Example 112, trans-((R)-1-{3-[4-Amino-5-(3-benzyloxy-phenyl)-6-methyl-pyrrolo[2,3-d]pyrimidin-7-yl]-cyclobutylmethyl}-pyrrolidin-2-yl)-methanol] showed an IC50 of 90 nM.

`Cc1c(-c2cccc(OCc3ccccc3)c2)c2c(N)ncnc2n1[C@H]1C[C@@H](CN2CCN(C)CC2)C1` [Example 117, cis-5-(3-Benzyloxy-phenyl)-6-methyl-7-[3-(4-methyl-piperazin-1-ylmethyl)-cyclobutyl]-7H-pyrrolo[2,3-d]pyrimidin-4-ylamine] had a half-maximal inhibitory concentration (IC50) of 130 nM.
